This is an account of results in ChEMBL document CHEMBL4017540, “Synthesis of Potent and Selective Inhibitors of Aldo-Keto Reductase 1B10 and Their Efficacy against Proliferation, Metastasis, and Cisplatin Resistance of Lung Cancer Cells” (J Med Chem, 2017).

Where a chain is given by its changes, count along the chain named. Where only a bound is given, the exact number is not on record here.

The target of assay [1] is T1, Aldo-keto reductase family 1 member B10 (Homo sapiens, UniProt O60218). As to the kind of experiment: Inhibition of recombinant human AKR1B10 using pyridine-3-aldehyde as substrate.
For assay [2], the target named is T2, Aldo-keto reductase family 1 member B1 (Homo sapiens, UniProt P15121). Nature of the assay: Inhibition of recombinant human AKR1B1 using pyridine-3-aldehyde as substrate.
In assay [3] the target is T3, Aldo-keto reductase family 1 member A1 (Homo sapiens, UniProt P14550).
T3 sequence (P14550 whole entry): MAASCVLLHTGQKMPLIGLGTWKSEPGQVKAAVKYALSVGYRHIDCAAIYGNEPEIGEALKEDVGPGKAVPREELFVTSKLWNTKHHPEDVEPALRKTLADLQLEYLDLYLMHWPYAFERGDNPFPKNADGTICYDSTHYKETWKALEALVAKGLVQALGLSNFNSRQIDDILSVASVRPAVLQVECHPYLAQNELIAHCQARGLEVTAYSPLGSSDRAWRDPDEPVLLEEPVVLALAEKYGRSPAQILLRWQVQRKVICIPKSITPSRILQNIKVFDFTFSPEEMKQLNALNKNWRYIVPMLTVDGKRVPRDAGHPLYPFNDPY
As to the kind of experiment: Inhibition of recombinant human AKR1A1 using pyridine-3-aldehyde as substrate.

The target of assay [4] is T4, Aldo-keto reductase family 1 member C1 (Homo sapiens, UniProt Q04828).
T4 sequence (Q04828 whole entry): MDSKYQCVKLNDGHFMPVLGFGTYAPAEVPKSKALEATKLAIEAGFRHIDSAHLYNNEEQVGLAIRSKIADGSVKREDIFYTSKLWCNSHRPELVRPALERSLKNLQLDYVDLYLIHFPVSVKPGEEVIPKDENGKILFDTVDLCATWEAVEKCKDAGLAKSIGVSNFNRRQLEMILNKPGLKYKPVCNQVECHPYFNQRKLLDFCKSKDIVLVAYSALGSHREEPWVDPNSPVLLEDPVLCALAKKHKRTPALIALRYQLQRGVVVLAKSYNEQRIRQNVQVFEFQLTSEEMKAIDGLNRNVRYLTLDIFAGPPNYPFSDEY
As to the kind of experiment: Inhibition of recombinant human AKR1C1 using S-tetralol as substrate.

The target of assay [5] is T5, Aldo-keto reductase family 1 member C2 (Homo sapiens, UniProt P52895).
T5 sequence (P52895 whole entry): T4 sequence (Q04828 whole entry) with T38V, R47H, L54V, C87S, V151M, R170H, Q172L
As to the kind of experiment: Inhibition of recombinant human AKR1C2 using S-tetralol as substrate.

The target in assay [6] is T6, Aldo-keto reductase family 1 member C3 (Homo sapiens, UniProt P42330).
T6 sequence (P42330 whole entry): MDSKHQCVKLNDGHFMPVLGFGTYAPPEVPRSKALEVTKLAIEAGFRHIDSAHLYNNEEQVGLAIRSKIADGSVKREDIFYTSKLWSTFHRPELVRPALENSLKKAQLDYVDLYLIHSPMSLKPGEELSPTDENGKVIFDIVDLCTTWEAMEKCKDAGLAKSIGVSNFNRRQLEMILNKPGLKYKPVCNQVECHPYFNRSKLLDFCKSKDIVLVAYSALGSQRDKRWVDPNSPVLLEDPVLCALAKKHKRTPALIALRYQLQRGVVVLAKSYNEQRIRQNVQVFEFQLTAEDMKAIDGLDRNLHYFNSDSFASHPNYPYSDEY
Nature of the assay: Inhibition of recombinant human AKR1C3 using S-tetralol as substrate.

The target of assay [7] is T7, Aldo-keto reductase family 1 member C4 (Homo sapiens, UniProt P17516).
T7 sequence (P17516 whole entry): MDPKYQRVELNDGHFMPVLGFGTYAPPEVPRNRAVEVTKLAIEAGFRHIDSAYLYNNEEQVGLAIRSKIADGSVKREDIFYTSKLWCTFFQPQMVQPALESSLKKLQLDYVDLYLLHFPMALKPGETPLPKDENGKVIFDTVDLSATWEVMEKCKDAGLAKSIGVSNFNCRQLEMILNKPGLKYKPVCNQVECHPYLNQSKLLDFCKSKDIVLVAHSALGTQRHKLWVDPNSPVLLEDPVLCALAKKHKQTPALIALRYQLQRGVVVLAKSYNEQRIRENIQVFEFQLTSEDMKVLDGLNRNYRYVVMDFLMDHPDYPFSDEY
Nature of the assay: Inhibition of recombinant human AKR1C4 using S-tetralol as substrate.

The target in assay [8] is T8, Carbonyl reductase [NADPH] 1 (Homo sapiens, UniProt P16152).
T8 sequence (P16152 whole entry): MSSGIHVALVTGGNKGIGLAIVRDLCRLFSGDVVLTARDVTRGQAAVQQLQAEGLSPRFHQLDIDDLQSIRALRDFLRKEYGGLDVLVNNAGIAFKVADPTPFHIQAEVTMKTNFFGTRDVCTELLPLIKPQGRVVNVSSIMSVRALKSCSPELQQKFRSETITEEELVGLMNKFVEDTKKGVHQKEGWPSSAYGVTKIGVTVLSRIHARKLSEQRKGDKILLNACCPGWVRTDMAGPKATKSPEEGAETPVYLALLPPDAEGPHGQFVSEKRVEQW
Nature of the assay: Inhibition of recombinant human CBR1 using isatin as substrate.

Assay [9] deals with T1, Aldo-keto reductase family 1 member B10. Nature of the assay: Competitive inhibition of recombinant human AKR1B10 in presence of geraniol as substrate by Lineweaver-Burk plot method.
A short description of assay [10]: Competitive inhibition of recombinant human AKR1B10 Lys125Leu mutant in presence of geraniol as substrate by Lineweaver-Burk plot method.
The nature of assay [11]: Competitive inhibition of recombinant human AKR1B10 Trp220Tyr mutant in presence of geraniol as substrate by Lineweaver-Burk plot method.
Assay [12] is described as follows: Competitive inhibition of recombinant human AKR1B10 Val301Leu mutant in presence of geraniol as substrate by Lineweaver-Burk plot method.
A short description of assay [13]: Competitive inhibition of recombinant human AKR1B10 Gln303Ser mutant in presence of geraniol as substrate by Lineweaver-Burk plot method.
The target in assay [14] is T1, Aldo-keto reductase family 1 member B10. As to the kind of experiment: Inhibition of human recombinant AKR1B10 (1 to 316 residues) expressed in Escherichia coli using pyridine-3-aldehyde as substrate.
For assay [15], the target named is T2, Aldo-keto reductase family 1 member B1. As to the kind of experiment: Inhibition of human recombinant AKR1B1 (1 to 316 residues) expressed in Escherichia coli using pyridine-3-aldehyde as substrate.
For assay [16], the target named is T1, Aldo-keto reductase family 1 member B10. Nature of the assay: Inhibition of AKR1B10 (unknown origin).
Assay [17] has as its target T2, Aldo-keto reductase family 1 member B1. Nature of the assay: Inhibition of AKR1B1 (unknown origin).
Assay [18] concerns the target T1, Aldo-keto reductase family 1 member B10. Nature of the assay: Inhibition of recombinant human intestinal N-terminal 6-His-tagged AKR1B10 expressed in Escherichia coli BL21 (DE3) pLysS cells using pyridine-3-aldehyde as substrate by fluorescence assay.
In assay [19] the target is T2, Aldo-keto reductase family 1 member B1. Nature of the assay: Inhibition of recombinant human AKR1B1 using pyridine-3-aldehyde as substrate by fluorescence assay.

T1 sequence (O60218 whole entry): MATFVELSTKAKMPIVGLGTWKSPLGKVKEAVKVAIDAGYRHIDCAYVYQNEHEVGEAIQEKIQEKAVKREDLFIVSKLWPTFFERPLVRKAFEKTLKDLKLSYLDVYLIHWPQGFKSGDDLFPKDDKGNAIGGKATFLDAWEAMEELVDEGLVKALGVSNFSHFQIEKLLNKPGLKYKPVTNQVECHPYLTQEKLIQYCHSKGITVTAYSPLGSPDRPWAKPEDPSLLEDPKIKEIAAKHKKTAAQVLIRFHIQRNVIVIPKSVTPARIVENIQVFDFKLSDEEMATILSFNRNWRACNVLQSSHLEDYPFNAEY

With `O=C(NCCc1ccc(O)cc1)c1cc2ccc(O)cc2oc1=O`, the IC50 turned out to be 20 nM in assay [1] and 98 nM in assay [2].

As for `O=C(NCCCc1cccc(F)c1)c1cc2ccc(O)cc2oc1=O`, the IC50 was 6 nM in assay [1] and 340 nM in assay [2].

On to `Cc1ccc(CCCNC(=O)c2cc3ccc(O)cc3oc2=O)cc1`, for which the values for the IC50 in assay [1] and in assay [2] were 7 nM and 200 nM, respectively.

On to `O=C(NCCCc1cc(F)cc(F)c1)c1cc2ccc(O)cc2oc1=O`, for which the figures for the IC50 in [1] and in assay [2] were 7.8 nM and 320 nM, respectively.

Turning to `O=C(NCCCCc1ccc(O)cc1)c1cc2ccc(O)cc2oc1=O`, the IC50 worked out at 11 nM in [1] and 314 nM in assay [2].

`O=C(NCCCc1cccc(O)c1)c1cc2ccc(O)cc2oc1=O`: the values for the IC50 in assay [1] and in assay [2] were 8.3 nM and 180 nM, respectively.

In the case of `O=C(NCCCc1ccc(O)cc1)c1cc2cccc(O)c2oc1=O`, the IC50 in assay [1] turned out to be 1500 nM; in [2], 9500 nM.

Regarding `O=C(NCCCc1ccc(O)cc1)c1cc2ccc(O)cc2oc1=O`, the IC50 in assay [1] worked out at 4.2 nM; in assay [2], 204 nM; in assay [3], 1500 nM; in assay [4] it was 950 nM; in assay [5], 970 nM; in assay [6], 1600 nM. The results for the half-inhibitory concentration (IC50) in assay [7] and in [8] were 820 nM and 4200 nM, respectively. In addition, the Ki in [9] is 2.3 nM; in [10], 6.9 nM; in assay [11], 14 nM; in assay [12] it was 9.8 nM; in [13], 2.5 nM.

With `C[C@@]12CCC[C@H]1[C@@H]1C[C@@H](O)[C@@]3(O)C[C@@H](O)CC[C@]3(CO)[C@H]1CC2`, the IC50 in assay [14] was 830 nM; in assay [15] it was over 100000 nM.

Regarding `COc1ccc(CCCNC(=O)c2cc3ccc(O)cc3oc2=O)cc1`, the values for the IC50 in assay [1] and in assay [2] were 11 nM and 390 nM, respectively.

On to `COc1ccc(/N=c2\oc3cc(O)ccc3cc2C(=O)NCCCc2cccc(O)c2)cc1`, for which the IC50 in assay [1] was 7.5 nM; in assay [2] it was 15 nM.

Turning to `O=C(NCCCc1ccc(F)cc1)c1cc2ccc(O)cc2oc1=O`, the 50% inhibitory concentration (IC50) stood at 3.5 nM in assay [1]; 277 nM in [2]; 1700 nM in assay [3]; 12000 nM in assay [4]; 610 nM in assay [5]; 470 nM in [6]. Moreover, the IC50 in [7] stood at 350 nM; in [8], 1100 nM.

As for `O=C(NCCCc1ccc(O)cc1)c1cc2ccccc2oc1=O`, the values for the IC50 in [1] and in assay [2] were 2700 nM and over 10000 nM, respectively.

Consider `O=C(NCCCc1ccccc1O)c1cc2ccc(O)cc2oc1=O`, for which the half-inhibitory concentration (IC50) in [1] was 6.4 nM; in [2], 220 nM.

For `O=C(/C=C/c1ccc(O)cc1)CC(=O)/C=C/c1ccc(O)cc1` [BISDEMETHOXYCURCUMIN], the IC50 was 60 nM in assay [16] and 5100 nM in [17].

On to `C[C@H](CCC(=O)O)[C@H]1CC[C@H]2[C@@H]3CC[C@@H]4C[C@@H](O)CC[C@]4(C)[C@H]3CC[C@]12C` [ISOLITHOCHOLIC ACID], for which the IC50 in [18] was determined as 27 nM; in assay [19], 6900 nM.

For orientation: IC50 means the concentration needed to halve the response being measured. As a reminder, the Ki is a dissociation constant, usually derived from enzyme kinetics or from competition with a known ligand.
